Results from patent publication US9980973B2, “Bicyclic heterocycle compounds and their uses in therapy” (ASTEX THERAPEUTICS LIMITED, priority 2012, dated 2018).
Counter-ions that a name gives are not always drawn. Like-named read-outs stand apart in the source and are kept apart here.

Tested on: EVSA-T (human breast carcinoma)
Assay: Anti-proliferative activity, Alamar Blue assay, EVSA-T
Format: cell-based
[1] = EVSA-T cells, 72 hours, Alamar Blue, dihydrochloride, read-out: EVSA-T prolif
[2] = Homo sapiens, EVSA-T, read-out: EC50 in EVSA-T cell line assays
[3] = Homo sapiens, EVSA-T, 72 h, EVSA-T cells, 72 hours, Alamar Blue, read-out: EVSA-T prolif

EC50 [2]	EC50 [3]	Compound	EC50 [1]
< 1000 nM	3.1 nM	C[C@@H]1CN(CC(=O)N2CC(C)(C)c3ncc(Cc4ccc(F)cc4)cc32)[C@@H](CN2CCOCC(F)(F)C2)CN1 [Example 28, 2-[(2R,5R)-2-[(6,6-Difluoro-1,4-oxazepan-4-yl)methyl]-5-methylpiperazin-1-yl]-1-{6-[(4-fluorophenyl)methyl]-3,3-dimethyl-1H,2H,3H-pyrrolo[3,2-b]pyridin-1-yl}ethan-1-one dihydrochloride]	
< 1000 nM	0.3 nM	C[C@@H]1CN(CC(=O)N2CC(C)(C)c3ncc(Cc4ccc(F)cc4F)cc32)[C@@H](CN2C[C@H](CO)OC[C@H]2C)CN1 [Example 120, 1-{6-[(2,4-Difluorophenyl)methyl]-3,3-dimethyl-1H,2H,3H-pyrrolo[3,2-b]pyridin-1-yl}-2-[(2R,5R)-2-{[(2R,5R)-2-(hydroxymethyl)-5-methylmorpholin-4-yl]methyl}-5-methylpiperazin-1-yl]ethan-1-one, dihydrochloride]	
< 1000 nM	1.1 nM	C[C@@H]1CN(CC(=O)N2CC(C)(C)c3ncc(Cc4ccc(F)cc4)cc32)[C@@H](CN2CCOC(C#N)C2)CN1 (stereo partly drawn) [Example 31, 4-{[(2R,5R)-1-(2-{6-[(4-Fluorophenyl)methyl]-3,3-dimethyl-1H,2H,3H-pyrrolo[3,2-b]pyridin-1-yl}-2-oxoethyl)-5-methylpiperazin-2-yl]methyl}morpholine-2-carbonitrile]	
< 1000 nM	1.2 nM	C[C@@H]1CN(CC(=O)N2CC(C)(C)c3ncc(Cc4ccc(F)cc4)cc32)[C@@H](CN2CCC[C@H]2CF)CN1 [Example 30, 2-[(2R,5R)-2-{[(2S)-2-(Fluoromethyl)pyrrolidin-1-yl]methyl}-5-methylpiperazin-1-yl]-1-{6-[(4-fluorophenyl)methyl]-3,3-dimethyl-1H,2H,3H-pyrrolo[3,2-b]pyridin-1-yl}ethan-1-one dihydrochloride]	
< 1000 nM	5.4 nM	CC1CC(=O)CCN1C[C@H]1CN[C@H](C)CN1CC(=O)N1CC(C)(C)c2ncc(Cc3ccc(F)cc3)cc21 (single isomer, unassigned) [Example 39, (2R or 2S)-1-{[(2R,5R)-1-(2-{6-[(4-Fluorophenyl)methyl]-3,3-dimethyl-1H,2H,3H-pyrrolo[3,2-b]pyridin-1-yl}-2-oxoethyl)-5-methylpiperazin-2-yl]methyl}-2-methylpiperidin-4-one dihydrochloride]	
< 1000 nM	29 nM	CCCC(O)c1cc2c(cn1)C(C)(C)CN2C(=O)CN1C[C@@H](C)NC[C@@H]1CN1[C@H](C)COC[C@H]1C (stereo partly drawn) [Example 90, 2-[(2R,5R)-2-{[(3R,5R)-3,5-Dimethylmorpholin-4-yl]methyl}-5-methylpiperazin-1-yl]-1-[6-(1-hydroxybutyl)-3,3-dimethyl-1H,2H,3H-pyrrolo[3,2-c]pyridin-1-yl]ethan-1-one dihydrochloride]	
< 1000 nM	0.37 nM	C[C@@H]1CN(CC(=O)N2CC(C)(C)c3c2cc(Cc2ccc(F)cc2)c[n+]3[O-])[C@@H](CN2[C@H](C)COC[C@H]2C)CN1 [Example 121, 1-{2-[(2R,5R)-2-{[(3R,5R)-3,5-Dimethylmorpholin-4-yl]methyl}-5-methylpiperazin-1-yl]acetyl}-6-[(4-fluorophenyl)methyl]-3,3-dimethyl-1H,2H,3H-pyrrolo[3,2-b]-pyridin-4-oxide dihydrochloride]	
< 1000 nM	6 nM	CO[C@@H]1CN(C[C@H]2CN[C@H](C)CN2CC(=O)N2CC(C)(C)c3ncc(Cc4ccc(F)cc4)cc32)C[C@@H]1F (mixture of isomers) [Example 41]	
< 1000 nM	0.48 nM	C[C@@H]1CN(CC(=O)N2CC(C)(C)c3cnc(Cc4ccc(F)cc4F)cc32)[C@@H](CN2[C@H](C)COC[C@H]2C)CN1 [Example 63, 1-{6-[(2,4-Difluorophenyl)methyl]-3,3-dimethyl-1H,2H,3H-pyrrolo[3,2-c]pyridin-1-yl}-2-[(2R,5R)-2-{[(3R,5R)-3,5-dimethylmorpholin-4-yl]methyl}-5-methylpiperazin-1-yl]ethan-1-one, dihydrochloride]	
< 1000 nM	98 nM	C[C@@H]1CN(CC(=O)N2CC(C)(C)c3ncc(Cc4ccc(F)cc4)cc32)[C@@H](CN2CCn3cnnc3C2)CN1 [Example 71, 1-{6-[(4-Fluorophenyl)methyl]-3,3-dimethyl-1H,2H,3H-pyrrolo[3,2-b]pyridin-1-yl}-2-[(2R,5R)-5-methyl-2-{5H, 6H, 7H, 8H-[1,2,4]triazolo[4,3-a]pyrazin-7-ylmethyl}piperazin-1-yl]ethan-1-one dihydrochloride]	

Further lines, the molecule ahead of its results:

Compound	EC50 [2]	EC50 [3]	EC50 [1]
C[C@@H]1CN(CC(=O)N2CC(C)(C)c3ncc(C(O)c4cc(F)ccc4F)cc32)[C@@H](CN2[C@H](C)COC[C@H]2C)CN1 (single isomer, unassigned) [Example 115, 1-{(R or S)-6-[(2,5-Difluorophenyl)(hydroxy)meth-yl]-3,3-dimethyl-1H,2H,3H-pyrrolo[3,2-b]pyridin-1-yl}-2-[(2R,5R)-2-{[(3R,5R)-3,5-dimethylmorpholin-4-yl]methyl}-5-methylpiperazin-1-yl]ethan-1-one dihydrochloride]	< 1000 nM		9.5 nM
C[C@@H]1CN(CC(=O)N2CC(C)(C)c3ncc(C(O)c4ccccc4)cc32)[C@@H](CN2[C@H](C)COC[C@H]2C)CN1 (single isomer, unassigned) [Example 113, 2-[(2R,5R)-2-{[(3R,5R)-3,5-Dimethylmorpholin-4-yl]methyl}-5-methylpiperazin-1-yl]-1-{(R or S)-6-[hydroxy(phenyl)methyl]-3,3-dimethyl-1H,2H,3H-pyrrolo[3,2-]pyridin-1-yl}ethan-1-one dihydrochloride]	< 1000 nM	9.4 nM	
CC(C)[C@@H]1COCCN1C[C@H]1CN[C@H](C)CN1CC(=O)N1CC(C)(C)c2ncc(Cc3ccc(F)cc3)cc21 [Example 13, 1-{6-[(4-Fluorophenyl)methyl]-3,3-dimethyl-1H,2H,3H-pyrrolo[3,2-b]pyridin-1-yl)-2-[(2R,5R)-5-methyl-2-{[(3R)-3-(propan-2-yl)morpholin-4-yl]methyl}piperazin-1-yl]ethan-1-one dihydrochloride]	< 1000 nM	1.2 nM	
C[C@@H]1CN(CC(=O)N2CC(C)(C)c3ncc(Cc4ccc(F)cc4)cc32)[C@@H](CN2CCC(F)(F)C2)CN1 [Example 6, 2-[(2R,5R)-2-[(3,3-Difluoropyrrolidin-1-yl)methyl]-5-methylpiperazin-1-yl]-1-{6-[(4-fluorophenyl)methyl]-3,3-dimethyl-1H,2H,3H-pyrrolo[3,2-b]pyridin-1-yl}ethan-1-one dihydrochloride]	< 1000 nM	4.6 nM	
CC1CS(=O)(=O)CCN1C[C@H]1CN[C@H](C)CN1CC(=O)N1CC(C)(C)c2ncc(Cc3ccc(F)cc3)cc21 (stereo partly drawn) [Example 9, 4-{[(2R,5R)-1-(2-{6-[(4-Fluorophenyl)methyl]-3,3-dimethyl-1H,2H,3H-pyrrolo[3,2-b]pyridin-1-yl}-2-oxoethyl)-5-methylpiperazin-2-yl]methyl}-3-methyl-1λ^6,4-thiomorpholine-1,1-dione dihydrochloride]	< 1000 nM	2.1 nM	
C[C@@H]1CN(CC(=O)N2CC(C)(C)c3ncc(C(O)c4ccc(F)cc4F)cc32)[C@@H](CN2[C@H](C)COC[C@H]2C)CN1 (single isomer, unassigned) [Example 103, (R or S)-1-[6-[(2,4-Difluorophenyl)(hydroxy)meth-yl]-3,3-dimethyl-1H,2H,3H-pyrrolo[3,2-b]pyridin-1-yl}-2-[(2R,5R)-2-{[(3R,5R)-3,5-dimethylmorpholin-4-yl]methyl}-5-methylpiperazin-1-yl]ethan-1-one dihydrochloride]	< 1000 nM		2.8 nM
C[C@@H]1CN(CC(=O)N2CC(C)(C)c3ncc(C(O)c4ccc(F)c(F)c4)cc32)[C@@H](CN2[C@H](C)COC[C@H]2C)CN1 (single isomer, unassigned) [Example 110, (R or S)-1-{6-[(3,4-Difluorophenyl)(hydroxy)meth-yl]-3,3-dimethyl-1H,2H,3H-pyrrolo[3,2-b]pyridin-1-yl}-2-[(2R,5R)-2-{[(3R,5R)-3,5-dimethylmorpholin-4-yl]methyl}-5-methylpiperazin-1-yl]ethan-1-one dihydrochloride]			2.8 nM
CCCC(F)(F)c1cc2c(cn1)C(C)(C)CN2C(=O)CN1C[C@@H](C)NC[C@@H]1CN1[C@H](C)CN(C(C)=O)C[C@@H]1C [Example 93, 2-[(2R,5R)-2-{[(2R,6S)-4-Acetyl-2,6-dimethylpiperazin-1-yl]methyl}-5-methylpiperazin-1-yl]-1-[6-(1,1-difluorobutyl)-3,3-dimethyl-1H,2H,3H-pyrrolo[3,2-c]pyridin-1-yl]ethan-1-one dihydrochloride]	< 1000 nM	7.1 nM	
COCC1(C)COCCN1C[C@H]1CN[C@H](C)CN1CC(=O)N1CC(C)(C)c2ncc(Cc3ccc(F)cc3)cc21 (single isomer, unassigned) [Example 99, dihydrochloride]		1.5 nM	
C[C@@H]1CN(CC(=O)N2CC(C)(C)c3ncc(Cc4ccc(F)cc4)cc32)[C@@H](CN2CCC(O)CC2)CN1 [Example 23, 1-{6-[(4-Fluorophenyl)methyl]-3,3-dimethyl-1H,2H,3H-pyrrolo[3,2-b]pyridin-1-yl}-2-[(2R,5R)-2-[(4-hydroxypiperidin-1-yl)methyl]-5-methylpiperazin-1-yl]ethan-1-one dihydrochloride]	< 1000 nM	3.8 nM	
C[C@@H]1CN(CC(=O)N2CC(C)(C)c3ncc(C(O)c4ccc(F)cc4F)cc32)[C@@H](CN2[C@H](C)COC[C@H]2C)CN1 (single isomer, unassigned) [Example 104, (R or S)-1-{6-[(2,4-Difluorophenyl)(hydroxy)meth-yl]-3,3-dimethyl-1H,2H,3H-pyrrolo[3,2-b]pyridin-1-yl}-2-[(2R,5R)-2-{[(3R,5R)-3,5-dimethylmorpholin-4-yl]methyl}-5-methylpiperazin-1-yl]ethan-1-one dihydrochloride]			1.3 nM
